In ChEMBL document CHEMBL1201862, “PubChem BioAssay data set” (2004):
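A five-concentration, 48-hour dose response in 96-well plates underlies each endpoint, interpolated linearly between surrounding concentrations. GI50 = concentration required for 50% inhibition of growth.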 The source made the active and inactive calls. No stated cut-off is given here; in the data, active = GI50 up to about 1.1 µM and inactive = higher.

Tests used:
Experiment in all cases: NCI anticancer screen, dose series, 48 h
A549 = system: A549
A498 = system: A498
NCI-H23 = system: NCI-H23
SW-620 = system: SW-620
HCT-116 = system: HCT-116
OVCAR-5 = system: OVCAR-5
KM12 = system: KM12
SK-MEL-28 = system: SK-MEL-28
MDA-N = system: MDA-N
SK-OV-3 = system: SK-OV-3
HOP-62 = system: HOP-62
RPMI-8226 = system: RPMI-8226
CCRF-CEM = system: CCRF-CEM
HL-60 = system: HL-60
UACC-257 = system: UACC-257
K562 = system: K562
RXF 393 = system: RXF 393
SF-295 = system: SF-295
OVCAR-3 = system: OVCAR-3
SR = system: SR

Measured: GI50

COC(=O)/C=C1/CCC(C)(C(=O)NS(=O)(=O)c2ccc(C)cc2)C1(C)C (configuration not stated)
inactive: A549 > 100 µM | A498 > 100 µM | NCI-H23 > 100 µM | SW-620 > 100 µM | HCT-116 > 100 µM | OVCAR-5 > 100 µM | KM12 > 100 µM | SK-MEL-28 > 100 µM | MDA-N > 100 µM | SK-OV-3 > 100 µM | HOP-62 > 100 µM | RPMI-8226 > 100 µM | CCRF-CEM > 100 µM | HL-60 > 100 µM | UACC-257 > 100 µM | K562 > 100 µM | RXF 393 > 100 µM | SF-295 > 100 µM | OVCAR-3 > 100 µM

C#Cc1cc(Br)c(OC(=O)C(C)(C)C)c(-c2cc(C#C)cc(Br)c2OC(=O)C(C)(C)C)c1
inactive: A549 31.8 µM | A498 57.7 µM | NCI-H23 30.5 µM | SW-620 27 µM | HCT-116 21 µM | OVCAR-5 21.2 µM | KM12 37.9 µM | SK-MEL-28 61.2 µM | MDA-N 31.8 µM | SK-OV-3 > 100 µM | HOP-62 55.6 µM | RPMI-8226 12.5 µM | CCRF-CEM 10.3 µM | HL-60 6.98 µM | UACC-257 36.1 µM | K562 35.8 µM | RXF 393 17.4 µM | SF-295 30.5 µM | OVCAR-3 80 µM

Cc1cc2c(cc1Cl)SC(NN(C)C)=NS2(=O)=O
inactive: A549 > 10 µM | A498 > 10 µM | NCI-H23 > 10 µM | SW-620 > 10 µM | HCT-116 > 10 µM | OVCAR-5 > 10 µM | KM12 > 10 µM | SK-MEL-28 > 10 µM | MDA-N > 10 µM | SK-OV-3 > 10 µM | HOP-62 > 10 µM | RPMI-8226 > 10 µM | CCRF-CEM > 10 µM | HL-60 > 10 µM | UACC-257 > 10 µM | K562 > 10 µM | RXF 393 > 10 µM | SF-295 > 10 µM | OVCAR-3 > 10 µM

NCC(O)CSCc1ccc(Cl)cc1 (configuration not stated)
inactive: A549 > 100 µM | A498 > 100 µM | NCI-H23 > 100 µM | SW-620 > 100 µM | HCT-116 > 100 µM | OVCAR-5 > 100 µM | KM12 > 100 µM | SK-MEL-28 > 100 µM | MDA-N > 100 µM | SK-OV-3 > 100 µM | HOP-62 > 100 µM | RPMI-8226 > 100 µM | CCRF-CEM > 100 µM | HL-60 > 100 µM | UACC-257 > 100 µM | K562 > 100 µM | RXF 393 > 100 µM | SF-295 > 100 µM | OVCAR-3 > 100 µM

CCOC(=O)C12C3CCC1C2C(=O)C3 (configuration not stated)
inactive: SR > 100 µM | A549 > 100 µM | NCI-H23 > 100 µM | SW-620 > 100 µM | HCT-116 > 100 µM | OVCAR-5 > 100 µM | KM12 > 100 µM | SK-MEL-28 > 100 µM | MDA-N > 100 µM | SK-OV-3 > 100 µM | HOP-62 > 100 µM | RPMI-8226 > 100 µM | CCRF-CEM > 100 µM | UACC-257 > 100 µM | K562 > 100 µM | RXF 393 > 100 µM | SF-295 > 100 µM | OVCAR-3 > 100 µM

CC(C(N)C(=O)NC(C(=O)O)C1OC(n2ccc(=O)[nH]c2=O)C(O)C1O)C(O)c1ccc(O)cn1 (configuration not stated)
inactive: SR > 100 µM | A549 > 100 µM | NCI-H23 > 100 µM | SW-620 > 100 µM | HCT-116 > 100 µM | OVCAR-5 > 100 µM | KM12 > 100 µM | SK-MEL-28 > 100 µM | MDA-N > 100 µM | HOP-62 > 100 µM | RPMI-8226 > 100 µM | CCRF-CEM > 100 µM | HL-60 > 100 µM | UACC-257 > 100 µM | SF-295 > 100 µM | OVCAR-3 > 100 µM

N#Cc1nc(Cc2ccccc2)oc1N
inactive: SR > 100 µM | A549 > 100 µM | NCI-H23 > 100 µM | SW-620 > 100 µM | HCT-116 > 100 µM | OVCAR-5 > 100 µM | KM12 > 100 µM | SK-MEL-28 > 100 µM | MDA-N > 100 µM | SK-OV-3 > 100 µM | HOP-62 > 100 µM | RPMI-8226 16.9 µM | CCRF-CEM 44.3 µM | UACC-257 > 100 µM | K562 42.1 µM | RXF 393 > 100 µM | SF-295 > 100 µM | OVCAR-3 > 100 µM

N#Cc1ccccc1-c1nc2c3c(c(N)ccc3n1)C(=O)c1ccccc1-2
inactive: A549 71.6 µM | A498 43.6 µM | NCI-H23 88.7 µM | SW-620 31 µM | HCT-116 29.7 µM | OVCAR-5 34.8 µM | KM12 11.5 µM | SK-MEL-28 24.8 µM | MDA-N > 100 µM | SK-OV-3 24.4 µM | HOP-62 18.1 µM | RPMI-8226 14.3 µM | CCRF-CEM 18.9 µM | HL-60 20 µM | UACC-257 > 100 µM | K562 43.5 µM | RXF 393 18 µM | SF-295 45.1 µM | OVCAR-3 45.1 µM
